The text below walks through data of patent publication US20200179511A1, “BCMA-TARGETING AGENT, AND COMBINATION THERAPY WITH A GAMMA SECRETASE INHIBITOR” (Novartis AG, priority 2017, published 2020).

Assay [1] has as its system shed/soluble BCMA. Nature of the assay: GSI inhibition of shed/soluble BCMA (sBCMA), ELISA of supernatants, 72 hours, serial dilutions (Example 2, FIG. 8, Table 3). It is filed as cell-based, human. Conditions: inhibition of BCMA shedding / enhancement of membrane BCMA. On the procedure: Target human cancer cell lines expressing various levels of human BCMA (NCI-H929^[High], MM1S^[Med], U266B1^[low]) were all transduced to constitutively express luciferase, which is used to measure cell viability/survival with the BrightGlo reagent (Promega E2650). Target cells were plated 30,000 cells per well in a 96 well plate (Costar 3904) together with serial dilutions of a panel of gamma secretase inhibitors (Table 2). The plate was incubated at 37° C./5% CO2 for 72 hours, followed by measurements of cell viability (BrightGlo, Promega # E2650) according to vendor protocol. In a replicate set of assay plates, cell culture supernatants were collected by centrifugation and quantified for levels of soluble BCMA by ELISA (R&D Systems, DY193), and the remaining cells were stained with a PE conjugated BCMA antibody (clone 19F2, Biolegend 357504) and analyzed by flow cytometry for BCMA cell surface expression levels.
Raw OD450 values from the BCMA ELISA were plotted together with the mean fluorescent intensity values from flow cytometry analysis of cells stained with anti-BCMA antibody, and are shown for MM1S cells treated with the various GSIs in FIG. 8. Table 3 summarizes the EC50 results of all the GSIs on the three BCMA-expressing cell lines.
(In general: In an ELISA, binding on a coated surface is turned into a signal by an enzyme label.)

Assay [2] deals with BCMA cell surface expression. Description: BCMA cell surface expression by flow cytometry (PE conjugated BCMA antibody) with or without GSI treatment (Example 1, FIG. 2). It is filed as cell-based, human. The conditions noted are these: BCMA-expressing multiple myeloma cell lines. On the procedure: BCMA expressing cell lines were also treated overnight with and without GSIs. Cell culture supernatants were collected and quantified for levels of soluble BCMA by ELISA (R&D Systems, # DY193). Additionally, remaining cells were pelleted, stained with a PE conjugated BCMA antibody (clone 19F2, Biolegend #357504) and analyzed by flow cytometry for BCMA cell surface expression levels.
BCMA cell surface expression level was determined by flow cytometry on cell lines with or without GSI treatment.
(In general: A flow cytometer gives signals particle by particle.)

Molecules are shown by their SMILES.

For `C[C@H](c1ccc(F)cc1CCCC(=O)O)N(c1cc(F)ccc1F)S(=O)(=O)c1ccc(Cl)cc1` [BMS-299897], the “efficacious concentrations among the panel of GSIs (rank of potency)” value in assay [1] is recorded as “least”.

Regarding `C[C@H](NC(=O)Cc1cc(F)cc(F)c1)C(=O)N[C@H](C(=O)OC(C)(C)C)c1ccccc1` [DAPT], the “cell surface expression of BCMA” value in assay [2] is reported as “strongly enhances”.

`C[C@H](NC(=O)[C@@H](O)c1cc(F)cc(F)c1)C(=O)N[C@@H]1C(=O)N(C)c2ccccc2-c2ccccc21` [LY-411575, (S)-2-((S)-2-(3,5-difluorophenyl)-2-hydroxyacetamido)-N—((S)-5-methyl-6-oxo-6,7-dihydro-5H-dibenzo[b,d]azepin-7-yl)propanamide]: the “cell surface expression of BCMA” value in assay [2] was “strongly enhances”. For the same molecule, the “efficacious concentrations among the panel of GSIs (rank of potency)” value in assay [1] was “most potent”.
